The results in this text go back to patent US20230277630A1, “METHODS AND COMPOSITIONS FOR TREATING AMYOTROPHIC LATERAL SCLEROSIS” (Amylyx Pharmaceuticals, Inc., priority 2022, published 2023).

As a reminder, the Papp A→B is the apparent permeability from the apical to the basolateral side of a cell layer. A word on the Papp B→A: it is the apparent permeability from the basolateral to the apical side of a cell layer. One may read the inhibition as how much of the control response was suppressed. A lower inhibition goes with a weak effect.

Structures are written as SMILES. Several values for one entry are separate records, joined by “and”; a condition that tells them apart may be missing. Equal entries are not always repeated.

One data set concerns the target T1, BCRP (Homo sapiens, UniProt Q9UNQ0).
T1 sequence (Q9UNQ0 1-655): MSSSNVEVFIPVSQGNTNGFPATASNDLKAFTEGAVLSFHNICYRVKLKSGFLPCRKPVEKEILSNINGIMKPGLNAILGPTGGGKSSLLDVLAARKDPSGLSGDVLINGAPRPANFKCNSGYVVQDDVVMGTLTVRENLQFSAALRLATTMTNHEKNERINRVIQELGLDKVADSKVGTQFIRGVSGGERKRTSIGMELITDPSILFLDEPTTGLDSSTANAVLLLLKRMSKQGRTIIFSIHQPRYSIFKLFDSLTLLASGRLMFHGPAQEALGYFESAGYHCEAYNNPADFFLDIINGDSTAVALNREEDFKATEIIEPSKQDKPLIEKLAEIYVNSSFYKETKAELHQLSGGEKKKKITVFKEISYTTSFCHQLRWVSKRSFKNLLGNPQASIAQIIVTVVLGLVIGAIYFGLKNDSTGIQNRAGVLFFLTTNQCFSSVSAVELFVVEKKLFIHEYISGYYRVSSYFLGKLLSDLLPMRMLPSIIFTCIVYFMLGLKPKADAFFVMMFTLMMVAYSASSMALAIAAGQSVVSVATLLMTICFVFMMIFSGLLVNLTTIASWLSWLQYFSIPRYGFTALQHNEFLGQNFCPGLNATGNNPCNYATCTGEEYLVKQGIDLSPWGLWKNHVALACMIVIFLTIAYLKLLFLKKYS
The data set is described as follows: BCRP IC50 assessment, bidirectional cladribine transport in BCRP-MDCK cells. As to conditions: BCRP-MDCK cells, 10 μM cladribine alone or + TUDCA/PB Solution or 0.5 μM Ko143; single replicates. The procedure:
(§1) After 30 minutes, the pre-incubation solution was aspirated.

Another data set relates to P-gp and BCRP. The data set is described as follows: P-gp and BCRP substrate assessment, bidirectional permeability in C2BBe1 cells. Conditions: for AP-to-BL Papp / BL-to-AP Papp / Papp A→B at 10 µM / Papp B→A at 10 µM: C2BBe1 cells, 10 μM probe; for Papp A→B at 10 µM / recovery at 10 μM / Papp B→A at 10 µM: human; for Papp A→B at 10 µM: Caco-2, pH 7.4, AP-to-BL Papp; for Papp B→A at 10 µM: Caco-2, pH 7.4, BL-to-AP Papp. On the procedure: The P-gp and BCRP substrate assessment was conducted in C2BBe1 cell monolayers. […] LY was co-dosed with each dosing solution at a nominal concentration of 200 μM.
The cell culture medium was aspirated, and the cell monolayers were rinsed once with HBSSg_7.4. […] For receiver samples, aliquots (300 μL) were taken at pre-selected time points. […] For donor samples, aliquots (50 μL) were taken at pre-selected time points without replacement.
Background: Caco-2 monolayers are a common model of the intestinal barrier.

A further data set concerns CYP2B6 mRNA. Kind of data set: Induction of CYP2B6 mRNA in human hepatocytes (qPCR). Conditions: controls: 1,000 μM phenobarbital, 10 μM flumazenil, 72 h. On the procedure: Plateable and inducible cryopreserved human hepatocytes were thawed and isolated in human hepatocyte thawing medium.
All experiments were performed in triplicate.
After induction treatment, CYP mRNA expression was measured by qPCR. Total RNA was isolated from the treated cells using the RNeasy® mini kit (Qiagen, Valencia, Calif., USA) and treated with RNase-free DNase (Qiagen) following the manufacturer's protocols. The concentration of RNA was determined using a Qubit® Fluorometer with a Qubit RNA HS assay kit (Invitrogen). cDNA was synthesized from up to 1 μg of the total RNA harvested from the cells using a QuantiTect® RT kit (Qiagen). Analysis of CYP gene expression by qPCR (Table 3) was performed using the LightCycler® 480 II System (Roche Diagnostics Corporation, Indianapolis, Ind., USA).
Relative mRNA was expressed as the fold-increase calculated from the normalized mRNA level (2^−ΔΔCt) relative to vehicle control. The percentage of mRNA fold-increase relative to positive control was calculated using the following equation:
% Induction relative to positive control=100×(mRNATA−mRNAvehicle)/(mRNApositive control−mRNAvehicle)
(In qPCR the cycle at which signal appears reflects the starting amount.)

The test system of a further data set is human hepatocytes. Kind of data set: Cell viability after CYP induction treatment (MTS). As to conditions: controls: 50 μM OME, 1,000 μM phenobarbital, 50 μM RIF, 10 μM flumazenil, 72 h. The procedure: Plateable and inducible cryopreserved human hepatocytes were thawed and isolated in human hepatocyte thawing medium. […] After attachment (4 hours), the medium was changed to fresh hepatocyte culture medium for overnight cell recovery. […] A positive control (100 μM chlorpromazine) was treated in parallel. […] The absorbance of formazan, which is proportional to the number of viable cells, was measured spectrophotometrically using the CellTiter 96® AQueous One Solution Cell Proliferation Assay (MTS).
After the CYP induction treatment, the cells were used for cell viability assay. The viability of cells (expressed as the percentage of MTS absorbance relative to vehicle control) was measured as described herein.

The target of data set [1] is T2, P-gp (Homo sapiens, UniProt P08183). Kind of data set: P-gp IC50 assessment, bidirectional digoxin transport in C2BBe1 cells. The procedure:
as §1

Data set [2] deals with T2, P-gp. Kind of data set: P-gp IC50 assessment, bidirectional digoxin transport in MDR1-MDCK cells.
Another data set addresses CYP2C9 (Homo sapiens, UniProt P11712). Kind of data set: in vitro. As to conditions: microsomes; for % of Control Enzyme Activity: 30 min, pH 7.4. On the procedure: CYP TDI was evaluated by a 30-minute pre-incubation of the TA with HLM in the presence and absence of NADPH followed by the CYP enzyme activity assay. […] The total organic solvent content in the final incubation was less than 1% (DMSO ≤0.1%, other organic solvent ≤1%). The CYP reactions were initiated by adding an individual CYP probe substrate with (when NADPH was not added in the pre-incubation step) or without (when NADPH was added in the pre-incubation step) the addition of NADPH (1 mM). The reaction mixture was incubated at 37° C. for 10-30 minutes depending on the individual CYP isoform (Table 24). The reaction was terminated with ice-cold acetonitrile (ACN) containing an internal standard (IS, stable isotope-labeled CYP probe metabolite). Negative (vehicle) controls were conducted using the incubation mixture without the TA. Positive controls were performed in parallel using known CYP time-dependent inhibitors. […] The formation of individual CYP probe metabolites was determined by LC-MS/MS.
The enzyme activity was expressed as the peak area ratio of CYP probe metabolite to IS, measured by LC-MS/MS.

Where [3] appears, read: batch used with Sol_1, Sol_3, and Sol_4, single replicates.
Setting [4] is: batch used with Sol_2, single replicates.
Setting [5] is: batch used with Sol_1, Sol_3, and Sol_4, Average.
Setting [6] is: pH 7.4, % of Control Enzyme Activity.

Sequence of CYP2C9 (P11712 whole entry, canonical isoform): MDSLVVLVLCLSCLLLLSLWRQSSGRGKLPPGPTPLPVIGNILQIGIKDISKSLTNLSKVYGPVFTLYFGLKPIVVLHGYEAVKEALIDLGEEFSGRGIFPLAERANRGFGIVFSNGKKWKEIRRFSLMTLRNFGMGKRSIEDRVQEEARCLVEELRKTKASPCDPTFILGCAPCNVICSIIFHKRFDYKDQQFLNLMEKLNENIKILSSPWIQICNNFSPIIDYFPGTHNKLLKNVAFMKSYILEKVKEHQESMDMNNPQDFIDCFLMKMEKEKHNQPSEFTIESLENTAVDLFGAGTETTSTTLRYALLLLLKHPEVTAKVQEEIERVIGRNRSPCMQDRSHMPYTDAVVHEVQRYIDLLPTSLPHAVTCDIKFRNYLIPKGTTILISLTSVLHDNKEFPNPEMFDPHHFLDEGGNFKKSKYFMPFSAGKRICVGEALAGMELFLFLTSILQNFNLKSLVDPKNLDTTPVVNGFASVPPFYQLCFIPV
T2 sequence (P08183 whole entry): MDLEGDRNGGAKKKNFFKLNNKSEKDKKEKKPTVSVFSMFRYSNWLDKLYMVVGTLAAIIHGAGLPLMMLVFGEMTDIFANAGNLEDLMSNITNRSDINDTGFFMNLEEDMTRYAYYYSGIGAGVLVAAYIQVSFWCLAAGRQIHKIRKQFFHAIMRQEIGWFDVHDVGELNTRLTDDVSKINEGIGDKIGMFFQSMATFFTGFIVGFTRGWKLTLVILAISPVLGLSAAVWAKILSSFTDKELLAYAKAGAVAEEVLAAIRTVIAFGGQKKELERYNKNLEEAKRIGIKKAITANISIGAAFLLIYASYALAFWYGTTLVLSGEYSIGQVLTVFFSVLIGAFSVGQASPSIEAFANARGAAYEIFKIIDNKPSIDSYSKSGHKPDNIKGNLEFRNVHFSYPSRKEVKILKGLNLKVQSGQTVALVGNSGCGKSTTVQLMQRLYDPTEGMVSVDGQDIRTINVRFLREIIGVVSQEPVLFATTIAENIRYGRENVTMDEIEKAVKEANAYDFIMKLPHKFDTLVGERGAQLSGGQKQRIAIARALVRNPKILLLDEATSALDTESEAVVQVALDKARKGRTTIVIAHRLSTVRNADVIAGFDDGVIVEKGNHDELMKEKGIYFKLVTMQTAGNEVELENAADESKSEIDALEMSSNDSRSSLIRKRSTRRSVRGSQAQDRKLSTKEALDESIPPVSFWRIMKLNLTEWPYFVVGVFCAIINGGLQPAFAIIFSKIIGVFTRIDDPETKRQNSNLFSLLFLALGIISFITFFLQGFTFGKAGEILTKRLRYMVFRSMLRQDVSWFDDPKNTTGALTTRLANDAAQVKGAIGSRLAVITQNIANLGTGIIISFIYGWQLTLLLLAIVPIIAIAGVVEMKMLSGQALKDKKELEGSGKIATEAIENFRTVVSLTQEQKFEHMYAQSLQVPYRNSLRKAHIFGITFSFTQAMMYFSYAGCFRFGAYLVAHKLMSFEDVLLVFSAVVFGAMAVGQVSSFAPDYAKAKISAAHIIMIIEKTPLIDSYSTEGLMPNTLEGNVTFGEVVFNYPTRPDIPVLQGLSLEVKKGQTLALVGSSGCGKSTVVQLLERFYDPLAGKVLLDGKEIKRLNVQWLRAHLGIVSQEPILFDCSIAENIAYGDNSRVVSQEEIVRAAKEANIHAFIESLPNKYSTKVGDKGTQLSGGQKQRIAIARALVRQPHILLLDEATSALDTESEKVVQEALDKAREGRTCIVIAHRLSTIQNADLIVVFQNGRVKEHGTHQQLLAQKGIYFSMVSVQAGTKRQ

As for `Nc1nc(Cl)nc2c1ncn2[C@H]1C[C@H](O)[C@@H](CO)O1` [cladribine], the “BL-to-AP Papp of cladribine” value on BCRP is recorded as 15.5 10^−6 cm/s. The “AP-to-BL Papp” value in the data set with P-gp and BCRP (setting [3]) is 0.549 10^−6 cm/s and 0.580 10^−6 cm/s; in the data set on P-gp and BCRP (setting [4]) it was 0.612 10^−6 cm/s and 0.554 10^−6 cm/s. Further, the “BL-to-AP Papp” value with P-gp and BCRP (setting [3]) is 13.3 10^−6 cm/s and 13.0 10^−6 cm/s; in the data set on P-gp and BCRP (setting [4]), 12.4 10^−6 cm/s and 13.1 10^−6 cm/s. The Papp A→B at 10 µM with P-gp and BCRP (setting [5]) came out at 0.5 ×10⁻⁶ cm/s; in the data set with P-gp and BCRP (setting [3]), 0.37 ×10⁻⁶ cm/s; with P-gp and BCRP (batch used with Sol_2, Average) it was 0.648 ×10⁻⁶ cm/s; with P-gp and BCRP (setting [4]) it was 0.778 ×10⁻⁶ cm/s. The recovery at 10 μM in the data set on P-gp and BCRP (Caco-2, pH 7.4, AP-to-BL Recovery) was found to be 95.3%; in the data set with P-gp and BCRP (Caco-2, pH 7.4, BL-to-AP Recovery) it was 92.9%. For the same compound, the apparent permeability from basolateral to apical (Papp B→A) at 10 µM in the data set with P-gp and BCRP (setting [5]) was determined as 13.5 ×10⁻⁶ cm/s; in the data set with P-gp and BCRP (setting [3]), 14.1 ×10⁻⁶ cm/s; with P-gp and BCRP (batch used with Sol_2, Average), 12.8 ×10⁻⁶ cm/s; in the data set with P-gp and BCRP (setting [4]), 12.8 ×10⁻⁶ cm/s.
For the compound `CCC1(c2ccccc2)C(=O)NC(=O)NC1=O` [Phenobarbital, phenobarbital], the “CYP2B6 mRNA % Induction Relative to Positive Control” value in the data set on CYP2B6 mRNA (donor 1), in the data set on CYP2B6 mRNA (donor 2) and in the data set with CYP2B6 mRNA (donor 3) was 100% in each case. For the same compound, the “CYP2B6 mRNA Fold-increase (n = 3) Mean” value with CYP2B6 mRNA (donor 1) was found to be 21.8 fold; in the data set with CYP2B6 mRNA (donor 2) it was 39.6 fold; in the data set with CYP2B6 mRNA (donor 3), 7.36 fold. Further, the figures for the “% MTS Absorbance Relative to Vehicle Control” value with human hepatocytes (donor 1), with human hepatocytes (donor 2) and with human hepatocytes (donor 3) were 97.7%, 98.8% and 108%, respectively. Moreover, the “Formazan Absorbance (n = 6) Mean” value came to 0.417 with human hepatocytes (donor 1), 0.504 with human hepatocytes (donor 2) and 0.320 in the data set on human hepatocytes (donor 3).
Consider `C/C=C/C[C@@H](C)C(=O)[C@H]1C(=O)N[C@@H](C(C)C)C(=O)N(C)CC(=O)N(C)[C@@H](CC(C)C)C(=O)N[C@@H](C(C)C)C(=O)N(C)[C@@H](CC(C)C)C(=O)N[C@@H](C)C(=O)N[C@H](C)C(=O)N(C)[C@@H](CC(C)C)C(=O)N(C)[C@@H](CC(C)C)C(=O)N(C)[C@@H](C(C)C)C(=O)N1C` [valspodar, reference compound], for which the “Percent Inhibition (P-gp, digoxin efflux)” value on P-gp [1] (C2BBe1 cells, 10 μM digoxin + TUDCA/PB Solution or 1 μM valspodar) is listed as 99.3%. In addition, the inhibition at 1 μM against P-gp [1] (human, pH 7.4) came to 99.3%; against P-gp [2] (human, MDR1-MDCK cell monolayers on Transwell plates, pH 7.4, probe digoxin (10 μM)), 99.9%. Besides, the “Percent Inhibition (P-gp)” value at P-gp [2] (10 μM Digoxin + 1 μM Valspodar, MDR1-MDCK cells) came out at 99.9%.
With `O=C(O)COc1ccc(C(=O)c2cccs2)c(Cl)c1Cl` [Tienilic acid], the “% of Control Enzyme Activity” value on CYP2C9 (10 µM) is 11.7%. Further, the “% of Control Enzyme Activity” value on CYP2C9 (30 µM) worked out at 9.64%. On CYP2C9 (setting [6]), this compound gave an activity at 30 min, 10 µM of 22.2% and an activity at 30 min, 30 µM of 16.2%.
